{
  "source": "ChEMBL document CHEMBL1126352",
  "about": "“Novel stereoselective calcium channel ligands of the diphenylalkylamine-type” (Bioorg Med Chem Lett, 1992)",
  "data": [
    {"target": "Voltage-gated L-type calcium channel (Rattus norvegicus, UniProt P22002+Q02485+P27732)", "test": "Inhibition of [3H]nitrendipine binding to calcium channel of rat brain membranes.", "type": "cell membranes, Membrane", "units": {"Kd": "M l-1"}, "values": [
      {"smiles": "CC(C)(C)c1ccc(CCCCN2CCC(C(O)(c3ccccc3)c3ccc(Cl)cc3)CC2)cc1", "note": "(racemic)", "Kd": "1.15e-7"},
      {"smiles": "CC(C)(C)c1ccc(CCCCN2CCC(C(O)(c3ccccc3)c3ccc(Cl)cc3)CC2)cc1", "note": "(stereo in doubt)", "Kd": "9.36e-8"},
      {"smiles": "CC(Cc1ccccc1)NCCC(c1ccccc1)c1ccccc1", "note": "(stereo not drawn) [PRENYLAMINE]", "Kd": "2.09e-7"}
    ]}
  ]
}
